Where a SMILES comes first, the peptide text is derived from it. [ ]: non-standard residue; d: D form. The star is where a group is joined. Fumaryl(OMe) = COC(=O)/C=C/C(=O)*; Dap = NC[C@H](N)C(=O)O
Test system: C. albicans isolates NF1-3 and LNF1-3
Experiment: Initial peptide uptake rate by isolates resistant to F2/F3
Format: cell-based, Candida albicans
Details: all six isolates NF1-3, LNF1-3; Figure 4
Protocol: Yeast cells grown exponentially in the YNB-SG medium were harvested by centrifugation (3000 ×g, 5 min), washed with 50 mM potassium phosphate buffer (pH 5.0 or 6.5), and suspended in the same buffer containing 1% glucose, to a final cell density corresponding to A660 ≅ 1.0. The cell suspension was incubated at 30°C. After 10 min, an oligopeptide solution was added, to give a final concentration of 100 μM. At that moment and at 5 min intervals thereafter, 2 mL samples of the cell suspension were withdrawn, immediately filtered through the Whatman GF/A filters and the filtrates were used to determine the residual peptide concentration. Then, the 1 mL portions of the filtrates were taken and combined with 1.25 mL aliquots of a solution containing 4% Na2B4O7 × 10 H2O and 0.8 mg mL^-1 of 2,4,6-trinitrobenzenesulfonate. The reaction was carried out at 37°C for 30 min. The A420 values were measured and the peptide concentration was read from the appropriate standard curve. Data were plotted as nanomoles of an oligopeptide, taken up by 1 mg (dry weight) of cells versus time. The initial uptake velocities were determined from the slopes of the linear part of the curves, in the 0- to 10-min region.
It is therefore clear that the diminished sensitivity of all six isolates to F2 and F3 was due to the reduced uptake, most likely by permease(s) of the PTR system.

## COC(=O)/C=C/C(=O)NC[C@H](NC(=O)[C@H](CCSC)NC(=O)[C@@H](NC(=O)[C@@H]1CCCN1C(=O)[C@H](CC(C)C)NC(=O)[C@@H](N)CCCCN)C(C)C)C(=O)O [Peptide F6, Lys-Leu-Pro-Val-Met-FMDP] (H-KLPVM[Dap](Fumaryl(OMe))-OH; N-terminus and C-terminus assumed)
  Initial uptake rate relative to wild type SC5314 cells: nearly the same or even somewhat higher

From PMC5673977, “Transport Deficiency Is the Molecular Basis of Candida albicans Resistance to Antifungal Oligopeptides” (Frontiers in Microbiology, 2017)
